{"source": "patent US4535079A", "about": "“Alkanolaminoxy derivatives of 3,4-dihydro-2H-1,4-benzothiazin-3-one, their production process, and their pharmaceutical use” (Mediolanum Farmaceutici S.R.L., priority 1982, dated 1985)", "key": {"guinea pig": {"system": "guinea pig", "assay": "Protection from the lethal effect of aconitine in the guinea pig", "assay_type": "in vivo", "conditions": "Cavia porcellus, 10 min, intravenous, 10 minutes before aconitine perfusion, read-out: percentage increase in the time of death by aconitine with respect to the control animals; for change in vivo at 0.01 mg/kg: dose 10 μg/kg; for change in vivo at 0.025 mg/kg: dose 25 μg/kg; for change in vivo at 0.015 mg/kg: dose 15 μg/kg; for change in vivo at 0.02 mg/kg: dose 20 μg/kg; for change in vivo at 0.009 mg/kg: dose 9 μg/kg", "description": "Protection from the methal effect of aconitine in the guinea pig. For the compounds according to the invention, an evaluation was made of their capacity to antagonise the lethal effect of aconitine in native guinea pigs of both sexes having an average weight of 400±50 g, anesthetized with 10% ethylurethan (1 g/kg i.p.), by making an E.C.G. precardiacal recording. Death was induced by perfusing aconitine through the jugular at a dose of 150 γ/kg/hour (5 ml/hour). The time of commencement of arrhythmia, the time of commencement of fibrillation and the time of death were checked. The product under examination were administered to the jugular vein 10 minutes before commencement of perfusion in doses from 0.01 mg/kg to 10 mg/kg."}, "[1]": {"system": "beta-adrenergic cardiac receptors (isolated guinea pig atrium)", "assay": "Beta-blocking activity: isolated guinea pig atrium method", "conditions": "concentration inhibiting 25% of the response to isoprenaline, 29° C., 10 minutes before isoprenaline", "description": "(a) Beta-blocking activity: isolated guinea pig atrium method\nThe compounds under examination were tested on the isolated guinea pig atrium for their capacity to antagonise the positive inotropic and chronotropic effects induced by isoprenaline. The preparations were made up from native guinea pigs weighing 450±50 g and suspended in a 10 ml bath of oxygenated Tyrode maintained at 29° C., the frequency and force of contraction being recorded by means of an isotonic pen loaded with 1.5 g and having an amplification ratio of 1:15. The substance under test was added to the medium in a volume of 0.1 ml 10 minutes before stimulation by isoprenalina administered at the optimum concentration which had been determined on the basis of the reactivity of the preparation."}, "[2]": {"assay": "LD50 in the male Wistar rat by intravenous administration", "conditions": "in vivo, i.v."}, "[3]": {"system": "isolated guinea pig trachea", "assay": "Beta-blocking activity by the isolated guinea pig trachea method", "conditions": "concentration able to inhibit 50% of the response; 37° C., 12 minutes before stimulation", "description": "(b) Beta-blocking activity by the isolated guinea pig trachea method\nThe series was also tested for beta-blocking activity at the level of the isolated guinea pig trachea, evaluated as antagonism to the effect of isoprenaline.\nA trachea segment was withdrawn from animals weighing 450±50 g, and a spiral of tissue was prepared and then suspended in a 20 ml bath of oxygenated Tyrode containing 10^-7 g/ml of acetylcholine and […] of eserine, the bath being temperature-controlled at 37° C. The recording was made by means of an isotonic pen with maximum amplification,loaded to 0.5 g and constantly cibrated.\nHaving determined the sub-maximum concentration of isoprenaline for stimulating the preparation, the test substance was placed in contact with it at different concentrations 12 minutes before stimulation, then evaluating the antagonistic effect."}}, "note": "Where a name gives a salt, the structure may show the parent alone.", "data": [{"smiles": "CC(C)CNCC(O)COc1cccc2c1SCC(=O)N2", "note": "(stereo not drawn) [XVI]", "values": [{"measurement": "change in vivo at 0.01 mg/kg", "setting": "guinea pig", "value": 32.2, "unit": "%"}, {"measurement": "IC25, positive chronotropic effect with isoprenaline", "setting": "[1]", "value": 0.13, "unit": "µg/mL"}, {"measurement": "IC25, positive inotropic effect with isoprenaline", "setting": "[1]", "value": 0.0995, "unit": "µg/mL"}, {"measurement": "LD50", "setting": "[2]", "value": 67, "unit": "mg/kg"}, {"measurement": "IC50, antagonism in the response of the isolated guinea pig trachea to isoprenaline", "setting": "[3]", "value": 0.112, "unit": "µg/mL"}]}, {"smiles": "CCC(C)NCC(O)COc1cccc2c1SCC(=O)N2", "note": "(stereo not drawn) [XVIII]", "values": [{"measurement": "change in vivo at 0.01 mg/kg", "setting": "guinea pig", "value": 49.2, "unit": "%"}, {"measurement": "IC25, positive chronotropic effect with isoprenaline", "setting": "[1]", "value": 0.803, "unit": "µg/mL"}, {"measurement": "IC25, positive inotropic effect with isoprenaline", "setting": "[1]", "value": 0.0705, "unit": "µg/mL"}, {"measurement": "LD50", "setting": "[2]", "value": 75, "unit": "mg/kg"}, {"measurement": "IC50, antagonism in the response of the isolated guinea pig trachea to isoprenaline", "setting": "[3]", "value": 1.21, "unit": "µg/mL"}]}, {"smiles": "CCC(C)NCC(O)COc1ccc2c(c1)NC(=O)CS2", "note": "(stereo not drawn) [Compound X]", "values": [{"measurement": "change in vivo at 0.025 mg/kg", "setting": "guinea pig", "value": 11.3, "unit": "%"}, {"measurement": "IC25, positive chronotropic effect with isoprenaline", "setting": "[1]", "value": 0.803, "unit": "µg/mL"}, {"measurement": "IC25, positive inotropic effect with isoprenaline", "setting": "[1]", "value": 0.67, "unit": "µg/mL"}, {"measurement": "LD50", "setting": "[2]", "value": 78, "unit": "mg/kg"}, {"measurement": "IC50, antagonism in the response of the isolated guinea pig trachea to isoprenaline", "setting": "[3]", "value": 0.66, "unit": "µg/mL"}]}, {"smiles": "CC(C)(C)NCC(O)COc1cccc2c1CCC(=O)N2", "note": "(stereo not drawn) [Carteolol, 5-(3-tert.butylamino-2-hydroxy-propoxy)-3,4-dihydro-carbostyryl-hydrochloride, reference compound]", "values": [{"measurement": "IC25, positive chronotropic effect with isoprenaline", "setting": "[1]", "value": 0.00905, "unit": "µg/mL"}, {"measurement": "IC25, positive inotropic effect with isoprenaline", "setting": "[1]", "value": 0.00173, "unit": "µg/mL"}, {"measurement": "LD50", "setting": "[2]", "value": 50, "unit": "mg/kg"}]}, {"smiles": "CC(C)NCC(O)COc1ccc2c(c1)SCC(=O)N2", "note": "(stereo not drawn) [Compound XI]", "values": [{"measurement": "change in vivo at 0.015 mg/kg", "setting": "guinea pig", "value": 21.3, "unit": "%"}, {"measurement": "IC25, positive chronotropic effect with isoprenaline", "setting": "[1]", "value": 0.091, "unit": "µg/mL"}, {"measurement": "IC25, positive inotropic effect with isoprenaline", "setting": "[1]", "value": 0.0743, "unit": "µg/mL"}, {"measurement": "LD50", "setting": "[2]", "value": 65, "unit": "mg/kg"}, {"measurement": "IC50, antagonism in the response of the isolated guinea pig trachea to isoprenaline", "setting": "[3]", "value": 0.76, "unit": "µg/mL"}]}, {"smiles": "CC(C)CNCC(O)COc1ccc2c(c1)NC(=O)CS2", "note": "(stereo not drawn) [VIII]", "values": [{"measurement": "change in vivo at 0.02 mg/kg", "setting": "guinea pig", "value": 19, "unit": "%"}, {"measurement": "IC25, positive chronotropic effect with isoprenaline", "setting": "[1]", "value": 0.861, "unit": "µg/mL"}, {"measurement": "IC25, positive inotropic effect with isoprenaline", "setting": "[1]", "value": 0.741, "unit": "µg/mL"}, {"measurement": "LD50", "setting": "[2]", "value": 83, "unit": "mg/kg"}, {"measurement": "IC50, antagonism in the response of the isolated guinea pig trachea to isoprenaline", "setting": "[3]", "value": 1.14, "unit": "µg/mL"}]}, {"smiles": "CC(C)(C)NCC(O)COc1cccc2c1SCC(=O)N2", "note": "(stereo not drawn) [XVII]", "values": [{"measurement": "change in vivo at 0.009 mg/kg", "setting": "guinea pig", "value": 55.4, "unit": "%"}, {"measurement": "IC25, positive chronotropic effect with isoprenaline", "setting": "[1]", "value": 0.000992, "unit": "µg/mL"}, {"measurement": "IC25, positive inotropic effect with isoprenaline", "setting": "[1]", "value": 0.000276, "unit": "µg/mL"}, {"measurement": "LD50", "setting": "[2]", "value": 50, "unit": "mg/kg"}, {"measurement": "IC50, antagonism in the response of the isolated guinea pig trachea to isoprenaline", "setting": "[3]", "value": 0.0015, "unit": "µg/mL"}]}, {"smiles": "CC(C)NCC(O)COc1ccc2c(c1)NC(=O)CS2", "note": "(stereo not drawn) [VII]", "values": [{"measurement": "change in vivo at 0.025 mg/kg", "setting": "guinea pig", "value": 24.1, "unit": "%"}, {"measurement": "IC25, positive chronotropic effect with isoprenaline", "setting": "[1]", "value": 0.415, "unit": "µg/mL"}, {"measurement": "IC25, positive inotropic effect with isoprenaline", "setting": "[1]", "value": 0.346, "unit": "µg/mL"}, {"measurement": "LD50", "setting": "[2]", "value": 80, "unit": "mg/kg"}, {"measurement": "IC50, antagonism in the response of the isolated guinea pig trachea to isoprenaline", "setting": "[3]", "value": 0.43, "unit": "µg/mL"}]}, {"smiles": "CC(C)NCC(O)COc1cccc2c1SCC(=O)N2", "note": "(stereo not drawn) [XV]", "values": [{"measurement": "change in vivo at 0.009 mg/kg", "setting": "guinea pig", "value": 48.6, "unit": "%"}, {"measurement": "IC25, positive chronotropic effect with isoprenaline", "setting": "[1]", "value": 0.0641, "unit": "µg/mL"}, {"measurement": "IC25, positive inotropic effect with isoprenaline", "setting": "[1]", "value": 0.0587, "unit": "µg/mL"}, {"measurement": "LD50", "setting": "[2]", "value": 73, "unit": "mg/kg"}, {"measurement": "IC50, antagonism in the response of the isolated guinea pig trachea to isoprenaline", "setting": "[3]", "value": 0.123, "unit": "µg/mL"}]}, {"smiles": "CC(C)CNCC(O)COc1ccc2c(c1)SCC(=O)N2", "note": "(stereo not drawn) [Compound XII]", "values": [{"measurement": "change in vivo at 0.02 mg/kg", "setting": "guinea pig", "value": 16.4, "unit": "%"}, {"measurement": "IC25, positive chronotropic effect with isoprenaline", "setting": "[1]", "value": 0.55, "unit": "µg/mL"}, {"measurement": "IC25, positive inotropic effect with isoprenaline", "setting": "[1]", "value": 0.361, "unit": "µg/mL"}, {"measurement": "LD50", "setting": "[2]", "value": 82, "unit": "mg/kg"}, {"measurement": "IC50, antagonism in the response of the isolated guinea pig trachea to isoprenaline", "setting": "[3]", "value": 0.806, "unit": "µg/mL"}]}, {"smiles": "CCC(C)NCC(O)COc1ccc2c(c1)SCC(=O)N2", "note": "(stereo not drawn) [XIV]", "values": [{"measurement": "change in vivo at 0.015 mg/kg", "setting": "guinea pig", "value": 20.6, "unit": "%"}, {"measurement": "IC25, positive chronotropic effect with isoprenaline", "setting": "[1]", "value": 0.202, "unit": "µg/mL"}, {"measurement": "IC25, positive inotropic effect with isoprenaline", "setting": "[1]", "value": 0.0978, "unit": "µg/mL"}, {"measurement": "LD50", "setting": "[2]", "value": 68, "unit": "mg/kg"}, {"measurement": "IC50, antagonism in the response of the isolated guinea pig trachea to isoprenaline", "setting": "[3]", "value": 0.25, "unit": "µg/mL"}]}, {"smiles": "CC(C)(C)NCC(O)COc1ccc2c(c1)SCC(=O)N2", "note": "(stereo not drawn) [Compound XIII, 7-(3-tert.butylamino-2-hydroxy)-propoxy-3,4-dihydro-2H-1,4-benzothiazin-3-one]", "values": [{"measurement": "change in vivo at 0.01 mg/kg", "setting": "guinea pig", "value": 39.7, "unit": "%"}, {"measurement": "IC25, positive chronotropic effect with isoprenaline", "setting": "[1]", "value": 0.0703, "unit": "µg/mL"}, {"measurement": "IC25, positive inotropic effect with isoprenaline", "setting": "[1]", "value": 0.0565, "unit": "µg/mL"}, {"measurement": "LD50", "setting": "[2]", "value": 60, "unit": "mg/kg"}, {"measurement": "IC50, antagonism in the response of the isolated guinea pig trachea to isoprenaline", "setting": "[3]", "value": 0.125, "unit": "µg/mL"}]}, {"smiles": "CC(C)(C)NCC(O)COc1ccc2c(c1)NC(=O)CS2", "note": "(stereo not drawn) [IX]", "values": [{"measurement": "change in vivo at 0.01 mg/kg", "setting": "guinea pig", "value": 25.9, "unit": "%"}, {"measurement": "IC25, positive chronotropic effect with isoprenaline", "setting": "[1]", "value": 0.255, "unit": "µg/mL"}, {"measurement": "IC25, positive inotropic effect with isoprenaline", "setting": "[1]", "value": 0.203, "unit": "µg/mL"}, {"measurement": "LD50", "setting": "[2]", "value": 75, "unit": "mg/kg"}, {"measurement": "IC50, antagonism in the response of the isolated guinea pig trachea to isoprenaline", "setting": "[3]", "value": 0.568, "unit": "µg/mL"}]}]}
